# Laboratory results reported in patent US20130267494A1, “1,4-OXAZEPANE DERIVATIVES” (priority 2010, published 2013).
# Where a name gives a salt, the structure may show the parent alone.
# Columns and labels:
# Type in all cases: cell-based
# [1] = target: T1, human serotonin transporter (Homo sapiens, UniProt P31645); test: Inhibitory action on human serotonin transporter ([3H]-5-hydroxytryptamine uptake in CHO cells); settings: compound 1 μM, relative to inhibitory activity of 10 μM Paroxetine as 100%; for inhibition at 1 µM: CHO, read-out: inhibitory rate (%)
# T1 construct: expressed in transfected cells
# T1 sequence (P31645 whole entry): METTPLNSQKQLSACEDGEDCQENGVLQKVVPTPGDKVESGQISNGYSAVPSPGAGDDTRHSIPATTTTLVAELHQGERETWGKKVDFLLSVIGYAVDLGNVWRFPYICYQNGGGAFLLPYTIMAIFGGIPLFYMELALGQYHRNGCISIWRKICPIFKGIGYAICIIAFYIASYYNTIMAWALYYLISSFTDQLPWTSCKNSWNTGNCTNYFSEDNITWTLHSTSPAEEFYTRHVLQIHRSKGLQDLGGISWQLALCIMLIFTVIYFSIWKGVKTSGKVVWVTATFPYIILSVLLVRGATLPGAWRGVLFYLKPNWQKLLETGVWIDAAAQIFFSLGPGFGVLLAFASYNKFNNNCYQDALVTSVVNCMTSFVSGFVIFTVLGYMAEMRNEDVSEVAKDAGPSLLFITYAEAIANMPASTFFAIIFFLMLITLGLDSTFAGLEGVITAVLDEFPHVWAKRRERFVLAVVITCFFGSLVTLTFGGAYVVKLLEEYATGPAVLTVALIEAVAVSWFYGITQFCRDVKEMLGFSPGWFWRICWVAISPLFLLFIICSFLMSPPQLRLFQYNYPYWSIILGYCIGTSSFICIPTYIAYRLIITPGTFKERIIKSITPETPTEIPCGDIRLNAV
# Summary of the method: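 CHO-K1 cells stably expressing human SERT, plated overnight, took up [3H]-5-HT (diluted to 200 nM before a 1:10 addition) for 20 min in HEPES-buffered saline with glucose and 0.5% BSA; radioactivity counted by scintillation. Compounds at 10 μM or 1 μM, activity expressed relative to 10 μM paroxetine set as 100%.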
# [2] = target: T2, human norepinephrine transporter (Homo sapiens, UniProt P23975); test: Inhibitory action on human norepinephrine transporter ([3H]-norepinephrine uptake in CHO cells); settings: compound 1 μM, relative to inhibitory activity of 10 μM DMI as 100%; for inhibition at 1 µM: CHO, read-out: inhibitory rate (%)
# T2 construct: expressed in transfected cells
# T2 sequence (P23975 whole entry): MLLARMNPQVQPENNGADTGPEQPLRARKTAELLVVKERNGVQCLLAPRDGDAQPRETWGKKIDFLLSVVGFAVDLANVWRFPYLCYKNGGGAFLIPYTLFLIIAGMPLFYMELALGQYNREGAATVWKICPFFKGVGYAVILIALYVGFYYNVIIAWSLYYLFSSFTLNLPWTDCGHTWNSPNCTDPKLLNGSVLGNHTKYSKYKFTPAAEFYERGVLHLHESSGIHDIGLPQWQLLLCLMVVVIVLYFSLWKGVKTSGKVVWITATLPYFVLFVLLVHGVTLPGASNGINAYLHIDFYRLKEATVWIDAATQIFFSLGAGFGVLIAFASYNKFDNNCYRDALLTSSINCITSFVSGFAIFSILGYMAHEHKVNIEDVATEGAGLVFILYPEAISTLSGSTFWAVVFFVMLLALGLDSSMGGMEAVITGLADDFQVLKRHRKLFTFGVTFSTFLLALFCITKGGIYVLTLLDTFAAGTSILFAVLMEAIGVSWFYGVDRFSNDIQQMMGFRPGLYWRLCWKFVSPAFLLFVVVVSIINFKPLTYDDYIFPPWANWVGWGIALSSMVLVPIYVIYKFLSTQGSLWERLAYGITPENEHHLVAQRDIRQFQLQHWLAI
# Summary of the method: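 Stably transfected CHO-K1 cells plated overnight, then given test compound and [3H]-norepinephrine (20 nM final, from 200 nM) in HEPES-buffered saline with 0.5% BSA for 45 min. After PBS washes, retained radioactivity counted by scintillation. Inhibition at 10 μM or 1 μM compound expressed relative to 10 μM DMI as 100%.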
# [3] = target: T3, human dopamine transporter (Homo sapiens, UniProt Q01959); test: Inhibitory action on human dopamine transporter ([3H]-dopamine uptake in CHO cells); settings: compound 1 μM, relative to inhibitory activity of 100 μM Nomifensine as 100%; for inhibition at 1 µM: CHO, read-out: inhibitory rate (%)
# T3 construct: expressed in transfected cells
# T3 sequence (Q01959 whole entry): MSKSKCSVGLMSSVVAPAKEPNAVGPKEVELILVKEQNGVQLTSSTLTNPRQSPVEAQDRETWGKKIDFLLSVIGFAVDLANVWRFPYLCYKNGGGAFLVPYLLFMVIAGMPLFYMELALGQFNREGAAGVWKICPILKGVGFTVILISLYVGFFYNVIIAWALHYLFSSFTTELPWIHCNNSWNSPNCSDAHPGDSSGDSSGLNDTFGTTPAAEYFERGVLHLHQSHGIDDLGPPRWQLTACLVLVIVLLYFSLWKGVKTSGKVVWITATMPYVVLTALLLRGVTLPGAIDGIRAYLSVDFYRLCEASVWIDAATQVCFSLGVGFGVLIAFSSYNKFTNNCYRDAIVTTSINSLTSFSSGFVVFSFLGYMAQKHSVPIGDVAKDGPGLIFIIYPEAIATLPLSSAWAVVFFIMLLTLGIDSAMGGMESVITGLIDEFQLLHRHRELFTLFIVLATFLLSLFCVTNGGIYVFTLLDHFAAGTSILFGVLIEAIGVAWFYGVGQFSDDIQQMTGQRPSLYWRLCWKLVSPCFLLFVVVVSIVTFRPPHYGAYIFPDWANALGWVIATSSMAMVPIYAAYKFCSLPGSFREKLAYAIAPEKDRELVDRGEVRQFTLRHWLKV
# Summary of the method: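 CHO-K1 cells stably expressing human dopamine transporter, exposed to compound at 10 μM or 1 μM in HEPES-buffered saline with 0.5% BSA. [3H]-dopamine uptake measured over 60 min by scintillation counting. Activity expressed relative to 100 μM nomifensine as 100%.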
Compound,inhibitory rate (%) [1],inhibition at 1 µM [2],inhibition at 1 µM [3],inhibitory rate (%) [2],inhibitory rate (%) [3],inhibition at 1 µM [1]
"OCC1CNCCOC1c1ccc(Cl)c(F)c1 (stereo not drawn) [Example 440, [(6R*,7R*)-7-(4-chloro-3-fluorophenyl)-1,4-oxazepan-6-yl]methanol monohydrochloride (retention time short)]",93%,105%,10%,,,
"O=S(=O)(NC[C@H]1OCCNC[C@H]1c1ccc(Cl)c(Cl)c1)C(F)F [Example 470, N-{[(6R,7S)-6-(3,4-dichloropheny))-1,4-oxazepan-7-yl]methyl}-1,1-difluoromethanesulfonamide monohydrochloride]",,103%,91%,,,66%
"OC[C@@H]1OCCNC[C@H]1c1ccc(Cl)c(Cl)c1 [Example 488, [(6R,7R)-6-(3,4-dichlorophenyl)-1,4-oxazepan-7-yl]methanol monohydrochloride]",,102%,37%,,,61%
"O=c1[nH]c(-c2cccnc2OC2CNCCOC2c2ccc(Cl)c(Cl)c2)no1 (stereo not drawn) [Example 525, 3-(2-{[(6R*,7S*)-7-(3,4-dichlorophenyl)-1,4-oxazepan-yl]oxy}pyridin-3-yl)-1,2,4-oxadiazol-5(4H)-one monohydrochloride (retention time long)]",,104%,98%,,,97%
"O=C1NCCCN1C[C@H]1OCCNC[C@H]1c1ccc(Cl)c(Cl)c1 [Example 545, 1-{[(6R,7S)-6-(3,4-dichlorophenyl)-1,4-oxazepan-7-yl]methyl}tetrahydropyrimidin-2(1H)-one monohydrochloride]",,108%,81%,,,94%
"O[C@@H]1CNCCO[C@H]1c1ccc(Cl)c(F)c1 [Example 552, (6R,7S)-7-(4-chloro-3-fluorophenyl)-1,4-oxazepan-6-ol monohydrochloride]",,107%,1%,,,14%
"O=c1[nH]nc(-c2cccnc2O[C@@H]2CNCCO[C@H]2c2ccc(Cl)c(F)c2)[nH]1 [Example 558, 5-(2-{[(6R,7S)-7-(4-chloro-3-fluorophenyl)-1,4-oxazepan-6-yl]oxy}pyridin-3-yl)-2,4-dihydro-3H-1,2,4-triazol-3-one monohydrochloride]",,106%,100%,,,81%
"CS(=O)(=O)CC1(O)CNCCOC1c1ccc(Cl)c(F)c1 (stereo not drawn) [Example 572, 7-(4-chloro-3-fluoro-phenyl)-6-[(methyl-sulfonyl)-methyl]-1,4-oxazepan-ol]",,103%,62%,,,95%
"OC[C@H](O)[C@H]1OCCNC[C@H]1c1ccc(Cl)c(Cl)c1 [Example 578, (1S)-1-[(6R, 7S)-6-(3,4-dichloro-phenyl)-1,4-oxazepan-7-yl]ethane-1,2-diol]",,99%,68%,,,28%
"OC[C@@H](O)[C@H]1OCCNC[C@H]1c1ccc(Cl)c(Cl)c1 [Example 579, (1R)-1-[(6R, 7S)-6-(3,4-dichloro-phenyl)-1,4-oxazepan-7-yl]ethane-1,2-diol]",,96%,49%,,,61%
"O=C(O)c1ccnn(C[C@@H]2CNCCO[C@H]2c2ccc(Cl)c(F)c2)c1=O [Example 597, 2-{[(6S, 7R)-7-(4-chloro-3-fluoro-phenyl)-1,4-oxazepan-6-yl]methyl}-3-oxo-2,3-dihydro-pyridazine-4-carboxylic acid]",,104%,38%,,,78%

# Next, values leading:
inhibitory rate (%) [1],inhibition at 1 µM [2],inhibition at 1 µM [3],inhibitory rate (%) [2],inhibitory rate (%) [3],inhibition at 1 µM [1],Compound
51%,,,103%,6%,,"OCC1CNCCOC1c1ccc(Cl)c(F)c1 (stereo not drawn) [Example 441, [(6R*,7R*)-7-(4-chloro-3-fluorophenyl)-1,4-oxazepan-6-yl]methanol monohydrochloride (retention time long)]"
,99%,51%,,,42%,"OC[C@H]1OCCNC[C@H]1c1ccc(Cl)c(Cl)c1 [Example 447, [(6R,7S)-6-(3,4-dichlorophenyl)-1,4-oxazepan-7-yl]methanol monohydrochloride]"
,88%,7%,,,28%,"OC[C@@H]1OCCNC[C@@H]1c1ccc(Cl)c(Cl)c1 [Example 448, [(6S,7R)-6-(3,4-dichlorophenyl)-1,4-oxazepan-7-yl]methanol monohydrochloride]"
,104%,99%,,,41%,"CC(=O)NC[C@H]1OCCNC[C@H]1c1ccc(Cl)c(Cl)c1 [Example 453, N-{[(6R,7S)-6-(3,4-dichlorophenyl)-1,4-oxazepan-7-yl]methyl}acetamide monohydrochloride]"
,102%,60%,,,38%,"CS(=O)(=O)NC[C@H]1OCCNC[C@H]1c1ccc(Cl)c(Cl)c1 [Example 467, N-{[(6R,7S)-6-(3,4-dichlorophenyl)-1,4-oxazepan-7-yl]methyl}methanesulfonamide monohydrochloride]"
,100%,61%,,,76%,"O=c1cccnn1C[C@H]1OCCNC[C@H]1c1ccc(Cl)c(Cl)c1 [Example 481, 2-{[(6R,7S)-6-(3,4-dichlorophenyl)-1,4-oxazepan-7-yl]methyl}pyridazin-3(2H)-one monohydrochloride]"
,70%,14%,,,15%,"OC[C@H]1OCCNC[C@@H]1c1ccc(Cl)c(Cl)c1 [Example 487, [(6S,7S)-6-(3,4-dichlorophenyl)-1,4-oxazepan-7-yl]methanol monohydrochloride]"
,100%,77%,,,77%,"OCC(O)(CO)[C@@H]1OCCNC[C@H]1c1ccc(Cl)c(Cl)c1 [Example 491, 2-[(6R,7R)-6-(3,4-dichlorophenyl)-1,4-oxazepan-7-yl]propane-1,2,3-triol monohydrochloride]"
,105%,57%,,,62%,"OCCOC[C@@H]1OCCNC[C@H]1c1ccc(Cl)c(Cl)c1 [Example 496, 2-{[(6R,7R)-6-(3,4-dichlorophenyl)-1,4-oxazepan-7-yl]methoxy}ethanol monohydrochloride]"
,104%,25%,,,46%,"O=C(CO)NC[C@@H]1OCCNC[C@H]1c1ccc(Cl)c(Cl)c1 [Example 507, N-{[(6R,7R)-6-(3,4-dichlorophenyl)-1,4-oxazepan-7-yl]methyl}-2-hydroxyacetamide monohydrochloride]"
,104%,53%,,,82%,"O=c1cccnn1C[C@@H]1OCCNC[C@H]1c1ccc(Cl)c(Cl)c1 [Example 515, 2-{[(6R,7R)-6-(3,4-dichlorophenyl)-1,4-oxazepan-7-yl]methyl}pyridazin-3(2H)-one monohydrochloride]"
,109%,46%,,,97%,"O=c1[nH]nc(-c2cccn(C[C@@H]3CNCCO[C@H]3c3ccc(Cl)c(F)c3)c2=O)o1 [Example 550, 1-{[(6S,7R)-7-(4-chloro-3-fluorophenyl)-1,4-oxazepan-6-yl]methyl}-3-(5-oxo-4,5-dihydro-1,3,4-oxadiazol-2-yl)pyridin-2(1H)-one monohydrochloride]"
,103%,100%,,,94%,"Cc1nnc(-c2cccnc2O[C@@H]2CNCCO[C@H]2c2ccc(Cl)c(F)c2)[nH]1 [Example 568, (6R,7S)-7-(4-chloro-3-fluorophenyl)-6-{[3-(5-methyl-4H-1,2,4-triazol-3-yl)pyridin-2-yl]oxy}-1,4-oxazepane monohydrochloride]"
